As usually defined, the IC50 is the concentration needed to halve the response being measured. Broadly, the half-life is how long it takes for the measured level to halve.

The text below walks through data of ChEMBL document CHEMBL5154820 (Eur J Med Chem, 2022).

The test system of one data set is HUVEC. Description: Vascular disruptive activity against HUVEC-formed vascular tube assessed as damage of vascular tube on matrigel substratum at 0.2 uM measured after 2 hrs. Type of data set: functional, Homo sapiens.
Data set [1] has as its system HeLa. The data set is described as follows: Induction of cell cycle arrest in human HeLa cells assessed as < 2N cells at 1.5 nM measured after 24 hrs by propidium iodide staining based flow cytometric analysis analysis ( Rvb = 9.32%). Type of data set: functional. For orientation: Flow cytometry measures light scatter and fluorescence of single cells or particles in a stream.

In data set [2] the test system is HeLa. The data set is described as follows: Induction of cell cycle arrest in human HeLa cells assessed as < 2N cells at 6 nM measured after 24 hrs by propidium iodide staining based flow cytometric analysis analysis ( Rvb = 9.32%). Type of data set: functional.
Data set [3] has as its system HeLa. The data set is described as follows: Induction of cell cycle arrest in human HeLa cells assessed as 2N cells at 6 nM measured after 24 hrs by propidium iodide staining based flow cytometric analysis analysis ( Rvb = 41.7%). Type of data set: functional.
Data set [4] concerns HeLa. The data set is described as follows: Induction of cell cycle arrest in human HeLa cells assessed as >4N cells at 1.5 nM measured after 24 hrs by propidium iodide staining based flow cytometric analysis analysis relative to control. Type of data set: functional.
For data set [5], the system named is HeLa. Description: Induction of cell cycle arrest in human HeLa cells assessed as >4N cells at 6 nM measured after 24 hrs by propidium iodide staining based flow cytometric analysis analysis relative to control. Type of data set: functional.
Data set [6] has as its system HeLa. Description: Induction of apoptosis in human HeLa cells assessed as viable cells at 1.5 nM measured after 24 hrs by Annexin V-FITC/7-AAD staining based flow cytometric analysis (reference value: 75.5%). Type of data set: functional. The conditions noted are these: read-out: Activity.
Data set [7] relates to HeLa. The data set is described as follows: Induction of apoptosis in human HeLa cells assessed as early apoptotic cells at 6 nM measured after 24 hrs by Annexin V-FITC/7-AAD staining based flow cytometric analysis (reference value: 18.8%). Type of data set: functional.
Data set [8] has as its system HeLa. Description: Induction of apoptosis in human HeLa cells assessed as late apoptotic cells at 3 nM measured after 24 hrs by Annexin V-FITC/7-AAD staining based flow cytometric analysis (reference value: 5.22%). Type of data set: functional.
Data set [9] has as its system HeLa. Description: Inhibition of colony formation in human HeLa cells at 6 nM and treated for every 48 hrs with fresh medium measured after 14 days by crystal violet staining method. Type of data set: functional. Set-up: scale not given: the % may be the effect or the level left. Particulars: time 14 day.
The target of another data set is Tubulin (Sus scrofa, UniProt P02554+P02550). Description: Inhibition of pig brain tubulin polymerization by spectrophotometeric analysis. Set-up: species or system Sus scrofa domesticus.
The target of data set [10] is T1, Tubulin (Sus scrofa) (UniProt P02554+P02550). The data set is described as follows: Inhibition of pig brain tubulin polymerization at 6 uM by spectrophotometer analysis relative to control. Set-up: scale not given: the % may be the effect or the level left. Particulars: Sus scrofa domesticus.
The target of data set [11] is T1, Tubulin (Sus scrofa). Description: Inhibition of pig brain tubulin polymerization at 12.5 uM by spectrophotometer analysis relative to control. Set-up: scale not given: the % may be the effect or the level left. Particulars: Sus scrofa domesticus.
The target in data set [12] is T2, Tubulin (Homo sapiens) (UniProt P68371+Q9H4B7+P0DPH7+P68366+Q13509+Q71U36+P04350+Q3ZCM7+P07437+P68363+Q9BQE3+Q6PEY2+Q13885+Q9BVA1+Q9BUF5). The data set is described as follows: Induction of microtubule disruption in human HeLa cells assessed as loss of cellular structure at 0.1 to 0.2 uM measured after 24 hrs by DAPI staining based laser scanning confocal microscopic analysis. Type of data set: cell-based. The conditions noted are these: dose 0.1-0.2 µM, DDE = dose-dependent effect.

Data set [13] deals with T2, Tubulin (Homo sapiens). Description: Induction of microtubule disruption in human HeLa cells assessed as loss of formation of cell membrane rounding at 0.1 to 0.2 uM measured after 24 hrs by DAPI staining based laser scanning confocal microscopic analysis. The conditions noted are these: dose 0.1-0.2 µM, DDE = dose-dependent effect.
Data set [14] concerns HeLa. Description: Induction of cell cycle arrest in human HeLa cells assessed as >4N cells at 0.2 uM measured after 24 hrs by propidium iodide staining based flow cytometric analysis analysis ( Rvb = 8.84%). Type of data set: functional.
In data set [15] the test system is HeLa. Description: Induction of cell cycle arrest in human HeLa cells assessed as accumulation of cells at G2/M phase at 0.1 uM after 24 hrs by propidium iodide staining based flow cytometric analysis (reference value: 20.3%). Type of data set: functional.
Data set [16] relates to HeLa. Description: Induction of apoptosis in human HeLa cells assessed as viable cells at 0.4 uM measured after 24 hrs by Annexin V-FITC/7-AAD staining based flow cytometric analysis (reference value: 70.1%). Type of data set: functional. Particulars: read-out: Activity.
For data set [17], the system named is HeLa. Description: Induction of apoptosis in human HeLa cells assessed as early apoptotic cells at 0.4 uM measured after 24 hrs by Annexin V-FITC/7-AAD staining based flow cytometric analysis (reference value: 20.8%). Type of data set: functional.
The test system of data set [18] is HeLa. Description: Induction of apoptosis in human HeLa cells assessed as late apoptotic cells at 0.2 uM measured after 24 hrs by Annexin V-FITC/7-AAD staining based flow cytometric analysis (reference value: 8.51%). Type of data set: functional.
Data set [19] relates to HeLa. The data set is described as follows: Induction of apoptosis in human HeLa cells assessed as necrotic cells at 0.1 uM measured after 24 hrs by Annexin V-FITC/7-AAD staining based flow cytometric analysis (reference value: 0.56%). Type of data set: functional.
Data set [20] deals with HeLa. The data set is described as follows: Inhibition of colony formation in human HeLa cells at 50 nM and treated for every 48 hrs with fresh medium measured after 14 days by crystal violet staining method ( Rvb = 67.3%). Type of data set: functional. On the set-up: scale not given: the % may be the effect or the level left. Particulars: time 14 day.
Data set [21] is described as follows: Half life in C57 nude mouse at 30 mg/kg, ip measured at 0.083 to 24 hrs by LC/MS/MS analysis. Type of data set: ADME, organism-based. Particulars: in vivo, time 0.083-24 hrs.
Data set [22] can be described thus: Apparent volume of distribution during terminal phase in C57 nude mouse at 30 mg/kg, ip measured at 0.083 to 24 hrs by LC/MS/MS analysis. Particulars: in vivo, time 0.083-24 hrs, read-out: Vz/F. Type of data set: ADME, organism-based.
Data set [23] in a line: Acute toxicity against ICR mouse assessed as morphological changes in heart at 1000 mg/kg, ip measured after 14 days by H and E staining method. Type of data set: organism-based. The conditions noted are these: in vivo, 336 h, time 14 day.
The nature of data set [24]: Acute toxicity against ICR mouse assessed as inflammatory cell infiltration in liver at 1000 mg/kg, ip measured after 14 days by H and E staining method. Type of data set: organism-based. The conditions noted are these: in vivo, 336 h, time 14 day.
A short description of data set [25]: Acute toxicity against ICR mouse assessed as focal necrosis in liver at 1000 mg/kg, ip measured after 14 days by H and E staining method. Type of data set: organism-based. Particulars: in vivo, 336 h, time 14 day.
Data set [26] relates to HeLa. The data set is described as follows: Antitumour activity against human HeLa cells xenografted in BABL/c mouse assessed as reduction in tumor weight at 30 mg/kg, ip administered daily for 21 days followed by addition of 3 mg/kg DDP for every 2 days ( Rvb = 3.36 g). Type of data set: functional. The conditions noted are these: time 21 day, 504 h. For orientation: A xenograft is tissue or cells of one species grown in another, often human tumour cells in immunodeficient mice.

Data set [27] in a line: Nephrotoxicity in BABL/c mouse assessed as increased uric acid level at 60 mg/kg, ip administered daily for 21 days relative to vehicle. Type of data set: toxicity, organism-based. The conditions noted are these: in vivo, 504 h, time 21 day.
Data set [28] deals with HeLa. The data set is described as follows: Potency index, ratio of cisplatin IC50 to test compound IC50 for cytotoxicity against human DDP resistant HeLa cells. Type of data set: functional.
The target of data set [29] is T3, Tubulin beta (Homo sapiens) (UniProt P68371+Q9H4B7+Q13509+P04350+Q3ZCM7+P07437+Q13885+Q9BVA1+Q9BUF5+A6NNZ2). The data set is described as follows: Binding affinity to beta-tubulin colchicine binding site in human HeLa cells assessed as decrease of adduct formation by measuring gray value measured at 5 uM incubated for 2 hrs followed by addition of EBI measured after 1.5 hrs by EBI competition based Western blotting analysis. Type of data set: cell-based. The conditions noted are these: time 3.5 hrs. On the technique in general: A western blot detects proteins with antibodies after separation by electrophoresis.

Data set [30] addresses T3, Tubulin beta (Homo sapiens). The data set is described as follows: Binding affinity to beta-tubulin colchicine binding site in human HeLa cells assessed as decrease of adduct formation by measuring gray value measured at 50 uM incubated for 2 hrs followed by addition of EBI measured after 1.5 hrs by EBI competition based Western blotting analysis. Type of data set: cell-based. The conditions noted are these: time 3.5 hrs.

Each structure is given as a SMILES string.

T1 sequence (P02550 whole entry, looked up): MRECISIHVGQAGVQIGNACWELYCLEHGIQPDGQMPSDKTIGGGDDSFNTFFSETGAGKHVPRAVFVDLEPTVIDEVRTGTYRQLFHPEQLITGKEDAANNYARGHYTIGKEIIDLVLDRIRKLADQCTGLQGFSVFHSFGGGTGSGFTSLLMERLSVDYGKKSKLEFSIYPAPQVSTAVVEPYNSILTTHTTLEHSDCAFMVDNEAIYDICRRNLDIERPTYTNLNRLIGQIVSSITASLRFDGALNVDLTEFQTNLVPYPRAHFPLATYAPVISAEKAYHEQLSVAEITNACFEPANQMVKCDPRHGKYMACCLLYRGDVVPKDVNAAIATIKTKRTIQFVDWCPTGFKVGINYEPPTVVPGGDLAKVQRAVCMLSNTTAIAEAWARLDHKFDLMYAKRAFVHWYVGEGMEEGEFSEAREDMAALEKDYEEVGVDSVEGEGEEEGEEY
T1 sequence (P02554 whole entry, looked up): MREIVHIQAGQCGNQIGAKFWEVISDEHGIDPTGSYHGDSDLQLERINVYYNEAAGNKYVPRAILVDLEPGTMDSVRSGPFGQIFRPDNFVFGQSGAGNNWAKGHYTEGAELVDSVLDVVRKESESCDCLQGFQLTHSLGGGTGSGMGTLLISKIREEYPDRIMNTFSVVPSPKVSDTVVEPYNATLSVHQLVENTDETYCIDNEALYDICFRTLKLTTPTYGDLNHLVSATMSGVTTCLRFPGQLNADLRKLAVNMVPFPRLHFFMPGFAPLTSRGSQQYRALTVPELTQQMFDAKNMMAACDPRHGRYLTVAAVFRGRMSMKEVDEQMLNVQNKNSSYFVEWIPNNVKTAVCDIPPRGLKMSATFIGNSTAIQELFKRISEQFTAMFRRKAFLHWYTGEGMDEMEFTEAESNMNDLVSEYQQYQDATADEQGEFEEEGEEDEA

On to `COc1ccc(/C=C\c2cc(OC)c(OC)c(OC)c2)cc1O` [COMBRETASTATIN A4], for which the Activity is on record as 100% in the data set on HUVEC; 4.37% in the data set on HeLa [1]; 16.5% with HeLa [2]; 25.9% in the data set with HeLa [3]; 17.9% in the data set with HeLa [4]; 6.35% in the data set on HeLa [5]. For the same compound, the Activity stood at 74.2% in the data set on HeLa [7], 10.8% in the data set on HeLa [8] and 100% with HeLa [9]. Moreover, the viability at 0.0015 µM in the data set with HeLa [6] was found to be 68.9%.

As for `CCOc1ccc(-c2cncnc2-c2cc(OC)c(OC)c(OC)c2)cc1Cl`, on Tubulin, the IC50 is 4.6 µM. Moreover, the Activity at Tubulin (Sus scrofa) [10] is 54%; on Tubulin (Sus scrofa) [11], 77%; on Tubulin (Homo sapiens) [12], “Dde”; at Tubulin (Homo sapiens) [13] it was “Dde”; in the data set with HeLa [14], 17.4%; with HeLa [15] it was 24.7%. The Activity in the data set on HeLa [17] is 84.4%; in the data set with HeLa [18], 6.7%; with HeLa [19] it was 0.5%; in the data set on HeLa [20] it was 36.8%; in data set [23], “Non-Toxic”; in data set [24], “Non-Toxic”. The Activity result in data set [25] is “Non-Toxic”; with HeLa [26], 2.18 g; in data set [27], 36%; in data set [29] it was 0.59; in data set [30], 1.51. Also, the viability at 0.4 µM in the data set with HeLa [16] was 11.5%. This compound had a half-life in data set [21] of 1.56 h. Besides, the Vd/F in data set [22] amounted to 11.3 L/kg. The “Ratio IC50” value in the data set with HeLa [28] came out at 2.7.
